Measured values as given in US20260240869A1, “ANTIPSEUDOMONAL FUSIDIC ACID COMPOUNDS” (priority 2022, published 2026).
Converted amounts (≈) assume the structure as drawn. Where two headings read alike, the source gives them in different places.

Columns and labels:
P. aeruginosa PAO1 [1] = test: MIC, CLSI broth microdilution, P. aeruginosa PAO1; format: cell-based, Pseudomonas aeruginosa; conditions: for MIC: Pseudomonas aeruginosa
Summary of the method: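 MIC read from microdilution in broth (CLSI method). Media: cation-adjusted Mueller-Hinton or LB Lennox. Triplicate biological repeats.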

P. aeruginosa PA14 = test: MIC, P. aeruginosa PA14; format: cell-based, Pseudomonas aeruginosa; conditions: Pseudomonas aeruginosa; Reference strain PA14 (Table 11); read-out: MIC
Procedure: (§1) Antimicrobial Susceptibility Tests. Susceptibility testing was performed in biological triplicate, using the microdilution broth method as outlined by the Clinical and Laboratory Standards Institute. Bacteria were cultured with cation-adjusted Meuller-Hinton broth (Sigma-Aldrich; catalogue number: 90922) or Luria-Bertani (LB) broth (Lennox) in round-bottom 96-well plates (Corning; catalogue number: 3788).

S. aureus ATCC 29213 = test: MIC, S. aureus ATCC 29213; format: cell-based; conditions: Staphylococcus aureus, ATCC29213; Table 9; read-out: MIC S. aureus ATCC 29213
Procedure: as §1

[2] = test system: clinical isolates of P. aeruginosa; test: MIC against panel of clinical isolates of P. aeruginosa; format: cell-based, Pseudomonas aeruginosa; conditions: for MIC: Pseudomonas aeruginosa, read-out: MIC
Procedure: as §1

[3] = test system: FA resistance mutants of P. aeruginosa PAO1 A6; test: MIC in FA-resistant mutants; format: cell-based, Pseudomonas aeruginosa; conditions: mutants generated in PAO1 A6
Procedure: as §1
Selection ofresistant mutants. Resistant mutants were selected using the large inoculum method. […] Colonies were visible after incubating at 37° C. for 72 h.

P. aeruginosa PAO1 [4] = test: NPN outer membrane permeability assay; format: cell-based, Pseudomonas aeruginosa; conditions: treatment for ten minutes
Excerpt: Further, the fluorescent probe N-phenylnapthylamine (NPN) was used to assess outer membrane permeability changes upon treatment with FA, gentamicin, and FA prodrug. NPN is membrane impermeable and is only weakly fluorescent in aqueous solutions. Upon entry to the cell and interacting with phospholipids, significant fluorescence is observed. […] This residual membrane depolarizing antibacterial activity can be observed in the FA polyamine (FIG. 4a) and the diacylated compound (Table 9).

P. aeruginosa PAO1 [5] = test: DiSC3 (5) inner membrane depolarization assay; format: cell-based, Pseudomonas aeruginosa

## CC(=O)O[C@H]1C[C@@]2(C)[C@@H](C[C@@H](O)[C@H]3[C@@]4(C)CC[C@@H](O)[C@@H](C)[C@@H]4CC[C@@]32C)/C1=C(\CCC=C(C)C)C(=O)O [FA, Fusidic acid]
P. aeruginosa PAO1 [1]; CAMH (Table 10)
  MIC P. aeruginosa PAO1, CAMH: 1020 µg/mL (≈ 1980 µM)
P. aeruginosa PAO1 [1]; P. aeruginosa PAO1
  shift in MIC on co-treatment with 5 mM MgCl2: no change in antibacterial activity
P. aeruginosa PAO1 [1]; PAO1, CLSI (Table 8), read-out: P. aeruginosa PAO1 MIC
  MIC: 1020 µg/mL (≈ 1980 µM)
P. aeruginosa PAO1 [1]; PAO1, Table 9, read-out: MIC P. aeruginosa PAO1
  MIC: 1020 µg/mL (≈ 1980 µM)
P. aeruginosa PAO1 [1]; Reference strain PAO1 (Table 11), read-out: MIC
  MIC: 1020 µg/mL (≈ 1980 µM)
P. aeruginosa PAO1 [1]; WT P. aeruginosa PAO1, MH broth (Table 1), read-out: PAO1 MIC
  MIC: > 512 µg/mL
P. aeruginosa PAO1 [1]; co-treatment 5 mM MgCl2 in CAMH (Table 10)
  MIC P. aeruginosa PAO1, 5 mM MgCl2/CAMH: 1024
P. aeruginosa PAO1 [1]; co-treatment of 8 μg/mL of PMBN, MH broth
  PAO1 + PMBN MIC: 4 µg/mL
P. aeruginosa PAO1 [1]; text b125, Chart 6
  MIC versus PAO1: 1024 μg/mLh
P. aeruginosa PA14
  MIC: > 1020 µg/mL
S. aureus ATCC 29213
  MIC: 0.125 µg/mL (≈ 0.242 µM)
[2]
  activity (MIC) against a panel of 75 clinical isolates of P. aeruginosa: essentially no antibacterial activity
[2]; AR Bank Isolate # 0054
  MIC: > 1020 µg/mL
[2]; AR Bank Isolate # 0064
  MIC: > 1020 µg/mL
[2]; AR Bank Isolate # 0090
  MIC: > 1020 µg/mL
[2]; AR Bank Isolate # 0092
  MIC: > 1020 µg/mL
[2]; AR Bank Isolate # 0095
  MIC: > 1020 µg/mL
[2]; AR Bank Isolate # 0100
  MIC: > 1020 µg/mL
[2]; AR Bank Isolate # 0103
  MIC: > 1020 µg/mL
[2]; AR Bank Isolate # 0110
  MIC: > 1020 µg/mL
[2]; AR Bank Isolate # 0229
  MIC: > 1020 µg/mL
[2]; AR Bank Isolate # 0230
  MIC: > 1020 µg/mL
[2]; AR Bank Isolate # 0231
  MIC: > 1020 µg/mL
[2]; AR Bank Isolate # 0232
  MIC: > 1020 µg/mL
[2]; AR Bank Isolate # 0233
  MIC: > 1020 µg/mL
[2]; AR Bank Isolate # 0234
  MIC: 1020 µg/mL (≈ 1980 µM)
[2]; AR Bank Isolate # 0235
  MIC: > 1020 µg/mL
[2]; AR Bank Isolate # 0236
  MIC: > 1020 µg/mL
[2]; AR Bank Isolate # 0237
  MIC: > 1020 µg/mL
[2]; AR Bank Isolate # 0239
  MIC: > 1020 µg/mL
[2]; AR Bank Isolate # 0240
  MIC: > 1020 µg/mL
[2]; AR Bank Isolate # 0241
  MIC: > 1020 µg/mL
[2]; AR Bank Isolate # 0242
  MIC: > 1020 µg/mL
[2]; AR Bank Isolate # 0243
  MIC: > 1020 µg/mL
[2]; AR Bank Isolate # 0244
  MIC: > 1020 µg/mL
[2]; AR Bank Isolate # 0245
  MIC: > 1020 µg/mL
[2]; AR Bank Isolate # 0246
  MIC: 1020 µg/mL (≈ 1980 µM)
[2]; AR Bank Isolate # 0248
  MIC: > 1020 µg/mL
[2]; AR Bank Isolate # 0250
  MIC: > 1020 µg/mL
[2]; AR Bank Isolate # 0252
  MIC: > 1020 µg/mL
[2]; AR Bank Isolate # 0254
  MIC: > 1020 µg/mL
[2]; AR Bank Isolate # 0265
  MIC: > 1020 µg/mL
[2]; AR Bank Isolate # 0763
  MIC: > 1020 µg/mL
[2]; AR Bank Isolate # 0767
  MIC: > 1020 µg/mL
[2]; AR Bank Isolate # 0769
  MIC: > 1020 µg/mL
[2]; AR Bank Isolate # 0772
  MIC: > 1020 µg/mL
[2]; Carle Isolate ID # Cl-02
  MIC: 1020 µg/mL (≈ 1980 µM)
[2]; Carle Isolate ID # Cl-03
  MIC: 1020 µg/mL (≈ 1980 µM)
[2]; Carle Isolate ID # Cl-04
  MIC: > 1020 µg/mL
[2]; Carle Isolate ID # Cl-05
  MIC: > 1020 µg/mL
[2]; Carle Isolate ID # Cl-06
  MIC: > 1020 µg/mL
[2]; Carle Isolate ID # Cl-07
  MIC: > 1020 µg/mL
[2]; Carle Isolate ID # Cl-08
  MIC: > 1020 µg/mL
[2]; Carle Isolate ID # Cl-09
  MIC: > 1020 µg/mL
[2]; Carle Isolate ID # Cl-10
  MIC: > 1020 µg/mL
[2]; Carle Isolate ID # Cl-11
  MIC: > 1020 µg/mL
[2]; Carle Isolate ID # Cl-12
  MIC: > 1020 µg/mL
[2]; Carle Isolate ID # Cl-13
  MIC: > 1020 µg/mL
[2]; Carle Isolate ID # Cl-14
  MIC: > 1020 µg/mL
[2]; Carle Isolate ID # Cl-15
  MIC: > 1020 µg/mL
[2]; Carle Isolate ID # Cl-19
  MIC: > 1020 µg/mL
[2]; Cubist Strain ID # 996
  MIC: > 1020 µg/mL
[2]; Cubist Strain ID # 997
  MIC: > 1020 µg/mL
[2]; Cubist Strain ID # 998
  MIC: 1020 µg/mL (≈ 1980 µM)
[2]; Cubist Strain ID # 999
  MIC: > 1020 µg/mL
[2]; Cubist Strain ID # 1000
  MIC: > 1020 µg/mL
[2]; Cubist Strain ID # 1001
  MIC: > 1020 µg/mL
[2]; Cubist Strain ID # 1174
  MIC: > 1020 µg/mL
[2]; Cubist Strain ID # 1175
  MIC: > 1020 µg/mL
[2]; Cubist Strain ID # 1176
  MIC: > 1020 µg/mL
[2]; Cubist Strain ID # 1280
  MIC: > 1020 µg/mL
[2]; Cubist Strain ID # 1282
  MIC: > 1020 µg/mL
[2]; Cubist Strain ID # 1283
  MIC: > 1020 µg/mL
[2]; Cubist Strain ID # 1284
  MIC: > 1020 µg/mL
[2]; Cubist Strain ID # 1586
  MIC: > 1020 µg/mL
[2]; Cubist Strain ID # 1590
  MIC: > 1020 µg/mL
[2]; Cubist Strain ID # 1591
  MIC: > 1020 µg/mL
[2]; Cubist Strain ID # 1592
  MIC: > 1020 µg/mL
[2]; Cubist Strain ID # 1905
  MIC: > 1020 µg/mL
[2]; Cubist Strain ID # 1906
  MIC: > 1020 µg/mL
[2]; Cubist Strain ID # 2242
  MIC: > 1020 µg/mL
[2]; Cubist Strain ID # 2243
  MIC: > 1020 µg/mL
[2]; Cubist Strain ID # 2244
  MIC: > 1020 µg/mL
[2]; Other strains (ref.) 1113
  MIC: > 1020 µg/mL
[2]; Other strains (ref.) 1727
  MIC: > 1020 µg/mL
[3]
  MIC fold change in FA-resistant strains: 32-128 ×
P. aeruginosa PAO1 [4]
  NPN fluorescence (outer membrane permeability): did not lead to any change in fluorescence
P. aeruginosa PAO1 [5]
  inner membrane depolarization (DiSC3 (5) fluorescence): did not impact membrane polarization
